From publication PMC3961306, “Comparison of the Cancer Gene Targeting and Biochemical Selectivities of All Targeted Kinase Inhibitors Approved for Clinical Use” (PLoS ONE, 2014)

Tests used:
Experiment in all cases: Kinase profiling in a biochemical assay panel (mobility shift assays and ELISA), %-inhibition at 1 μM; selectivity entropy
[1] = biological target: panel of more than 300 wild-type and mutant kinases (313 kinase panel) (Homo sapiens, UniProt Q16620); details: kinase TRKB; 1 μM
[2] = biological target: panel of more than 300 wild-type and mutant kinases (313 kinase panel) (Homo sapiens, UniProt P21802); details: kinase FGFR2; compound at 1 μM
[3] = biological target: panel of more than 300 wild-type and mutant kinases (313 kinase panel) (Homo sapiens, UniProt Q9Y463); details: kinase DYRK1B; compound at 1 μM
[4] = biological target: T1, panel of more than 300 wild-type and mutant kinases (313 kinase panel) (Homo sapiens, UniProt P30530); details: kinase AXL; 1 μM compound
T1 sequence (P30530 26-894): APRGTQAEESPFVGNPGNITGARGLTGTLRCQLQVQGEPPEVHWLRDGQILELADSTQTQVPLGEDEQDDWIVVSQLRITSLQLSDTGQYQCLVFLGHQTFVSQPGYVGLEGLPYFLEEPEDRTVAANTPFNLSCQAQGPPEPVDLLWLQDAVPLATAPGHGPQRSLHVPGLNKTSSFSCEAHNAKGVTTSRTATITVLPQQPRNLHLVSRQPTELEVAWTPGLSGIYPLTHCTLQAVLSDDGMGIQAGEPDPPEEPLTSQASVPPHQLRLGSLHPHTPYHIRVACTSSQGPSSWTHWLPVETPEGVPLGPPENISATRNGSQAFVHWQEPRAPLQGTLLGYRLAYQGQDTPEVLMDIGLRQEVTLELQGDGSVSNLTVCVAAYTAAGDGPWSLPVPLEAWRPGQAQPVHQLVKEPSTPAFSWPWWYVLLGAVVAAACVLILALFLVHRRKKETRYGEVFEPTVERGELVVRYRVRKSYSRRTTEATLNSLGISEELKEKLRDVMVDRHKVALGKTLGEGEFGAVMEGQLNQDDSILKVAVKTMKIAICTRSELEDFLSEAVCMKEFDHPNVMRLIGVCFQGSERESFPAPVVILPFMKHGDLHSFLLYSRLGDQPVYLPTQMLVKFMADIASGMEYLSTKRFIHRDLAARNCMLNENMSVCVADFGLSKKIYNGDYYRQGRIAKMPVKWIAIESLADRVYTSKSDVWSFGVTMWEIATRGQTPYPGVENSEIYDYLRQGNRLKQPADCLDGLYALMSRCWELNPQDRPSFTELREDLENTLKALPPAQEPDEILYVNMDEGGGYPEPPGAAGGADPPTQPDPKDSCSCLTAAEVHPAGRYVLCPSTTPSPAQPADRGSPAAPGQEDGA

[5] = biological target: panel of more than 300 wild-type and mutant kinases (313 kinase panel) (Homo sapiens, UniProt Q16512); details: kinase PKN1; 1 μM
[6] = biological target: T2, panel of more than 300 wild-type and mutant kinases (313 kinase panel) (Homo sapiens, UniProt Q92630); details: kinase DYRK2; compound at 1 μM
T2 sequence (Q92630 1-601): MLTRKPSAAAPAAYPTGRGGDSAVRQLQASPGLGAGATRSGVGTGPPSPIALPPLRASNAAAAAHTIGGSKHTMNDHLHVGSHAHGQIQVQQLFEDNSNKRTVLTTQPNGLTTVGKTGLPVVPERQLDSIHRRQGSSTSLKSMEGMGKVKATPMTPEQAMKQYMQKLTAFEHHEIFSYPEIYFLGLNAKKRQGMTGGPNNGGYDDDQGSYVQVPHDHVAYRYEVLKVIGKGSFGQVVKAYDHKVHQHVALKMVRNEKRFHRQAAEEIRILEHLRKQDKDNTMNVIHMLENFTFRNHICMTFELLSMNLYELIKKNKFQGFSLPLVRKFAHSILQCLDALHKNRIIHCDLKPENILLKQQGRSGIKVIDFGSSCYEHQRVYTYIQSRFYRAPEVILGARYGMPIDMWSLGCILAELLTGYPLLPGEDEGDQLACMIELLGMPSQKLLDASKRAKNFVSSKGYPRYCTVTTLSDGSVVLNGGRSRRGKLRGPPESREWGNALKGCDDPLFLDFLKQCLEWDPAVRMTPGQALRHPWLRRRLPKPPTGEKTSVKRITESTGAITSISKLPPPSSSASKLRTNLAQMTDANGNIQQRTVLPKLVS

[7] = biological target: panel of more than 300 wild-type and mutant kinases (313 kinase panel) (Homo sapiens, UniProt O96013); details: kinase PAK4; 1 μM
[8] = biological target: panel of more than 300 wild-type and mutant kinases (313 kinase panel) (Homo sapiens, UniProt P24723); details: kinase PKCη; 1 μM
[9] = biological target: panel of more than 300 wild-type and mutant kinases (313 kinase panel) (Homo sapiens, UniProt P28482); details: kinase Erk2; compound at 1 μM
[10] = biological target: panel of more than 300 wild-type and mutant kinases (313 kinase panel) (Homo sapiens, UniProt Q15208); details: kinase NDR1; 1 μM
Sequence of panel of more than 300 wild-type and mutant kinases (313 kinase panel) (Homo sapiens, UniProt Q15208) (Q15208 whole entry, change not shown): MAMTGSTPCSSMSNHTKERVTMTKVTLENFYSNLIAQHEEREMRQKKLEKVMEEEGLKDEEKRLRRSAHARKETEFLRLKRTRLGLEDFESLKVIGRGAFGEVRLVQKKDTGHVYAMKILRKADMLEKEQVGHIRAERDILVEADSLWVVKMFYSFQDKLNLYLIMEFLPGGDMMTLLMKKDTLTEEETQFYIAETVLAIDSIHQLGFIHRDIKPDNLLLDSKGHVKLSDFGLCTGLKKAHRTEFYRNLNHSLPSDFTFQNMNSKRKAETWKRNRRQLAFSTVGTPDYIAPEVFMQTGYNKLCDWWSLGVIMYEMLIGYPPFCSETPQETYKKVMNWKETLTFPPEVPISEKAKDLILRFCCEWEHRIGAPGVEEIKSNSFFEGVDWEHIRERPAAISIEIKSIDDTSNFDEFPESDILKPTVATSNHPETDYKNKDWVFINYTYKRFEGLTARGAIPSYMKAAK

Sequence of panel of more than 300 wild-type and mutant kinases (313 kinase panel) (Homo sapiens, UniProt Q9Y463) (Q9Y463 whole entry, change not shown): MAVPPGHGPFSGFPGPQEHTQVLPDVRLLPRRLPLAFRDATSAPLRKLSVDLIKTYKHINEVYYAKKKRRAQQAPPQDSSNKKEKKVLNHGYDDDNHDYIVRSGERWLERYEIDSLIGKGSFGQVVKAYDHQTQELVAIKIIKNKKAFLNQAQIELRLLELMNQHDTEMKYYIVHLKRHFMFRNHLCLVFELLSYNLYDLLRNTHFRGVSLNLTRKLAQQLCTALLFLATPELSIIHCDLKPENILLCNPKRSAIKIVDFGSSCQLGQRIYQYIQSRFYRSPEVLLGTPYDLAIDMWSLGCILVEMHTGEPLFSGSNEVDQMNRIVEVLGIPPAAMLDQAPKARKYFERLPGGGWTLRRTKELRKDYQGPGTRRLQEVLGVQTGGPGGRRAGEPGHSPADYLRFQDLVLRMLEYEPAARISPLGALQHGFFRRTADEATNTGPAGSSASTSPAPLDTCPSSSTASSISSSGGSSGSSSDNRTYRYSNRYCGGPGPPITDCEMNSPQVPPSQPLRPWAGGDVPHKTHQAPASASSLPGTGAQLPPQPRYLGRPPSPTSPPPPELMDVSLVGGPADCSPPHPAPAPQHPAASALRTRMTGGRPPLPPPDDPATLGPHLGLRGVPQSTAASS
Sequence of panel of more than 300 wild-type and mutant kinases (313 kinase panel) (Homo sapiens, UniProt P24723) (P24723 whole entry, change not shown): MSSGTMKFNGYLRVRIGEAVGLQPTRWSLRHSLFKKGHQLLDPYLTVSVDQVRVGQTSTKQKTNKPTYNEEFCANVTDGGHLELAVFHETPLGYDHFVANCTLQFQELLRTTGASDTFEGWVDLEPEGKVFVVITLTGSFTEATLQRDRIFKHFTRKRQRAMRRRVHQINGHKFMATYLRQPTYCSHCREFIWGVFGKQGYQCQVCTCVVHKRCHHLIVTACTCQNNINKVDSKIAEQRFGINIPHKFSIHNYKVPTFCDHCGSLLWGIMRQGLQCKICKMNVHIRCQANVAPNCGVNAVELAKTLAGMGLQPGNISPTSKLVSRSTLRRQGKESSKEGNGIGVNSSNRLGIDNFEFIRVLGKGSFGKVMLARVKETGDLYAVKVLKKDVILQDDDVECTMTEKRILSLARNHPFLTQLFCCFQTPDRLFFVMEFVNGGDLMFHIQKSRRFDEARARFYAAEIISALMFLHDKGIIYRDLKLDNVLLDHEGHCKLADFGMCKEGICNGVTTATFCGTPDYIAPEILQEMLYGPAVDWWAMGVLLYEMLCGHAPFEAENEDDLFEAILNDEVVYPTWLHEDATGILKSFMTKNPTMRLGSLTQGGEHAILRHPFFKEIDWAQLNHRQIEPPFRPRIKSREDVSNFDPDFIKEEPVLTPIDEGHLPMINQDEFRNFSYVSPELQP

Row | Compound | %-inhibition of TRKB [1] [%] | %-inhibition of FGFR2 [2] [%] | %-inhibition of DYRK1B [3] [%] | %-inhibition, AXL [4] [%] | %-inhibition of PKN1 [5] [%] | %-inhibition of DYRK2 [6] [%] | %-inhibition of PAK4 [7] [%] | %-inhibition of PKCη [8] [%] | %-inhibition of Erk2 [9] [%] | %-inhibition of NDR1 [10] [%]
1 | N#CC[C@H](C1CCCC1)n1cc(-c2ncnc3[nH]ccc23)cn1 [ruxolitinib] | 88 | 29 | 8 | 12 | 50 | -10 | 0.371 | -1.36 | -5.62 | 88
2 | CO[C@H]1C[C@@H]2CC[C@@H](C)[C@@](O)(O2)C(=O)C(=O)N2CCCC[C@H]2C(=O)O[C@H]([C@H](C)C[C@@H]2CC[C@@H](OCCO)[C@H](OC)C2)CC(=O)[C@H](C)/C=C(\C)[C@@H](O)[C@@H](OC)C(=O)[C@H](C)C[C@H](C)/C=C/C=C/C=C/1C [everolimus] | -0.542 | -10 | -8 | -1.68 | 2.6 | -10 | -4 | 9 | -7.44 | -7
3 | CC(=O)Nc1cccc(-n2c(=O)n(C3CC3)c(=O)c3c(Nc4ccc(I)cc4F)n(C)c(=O)c(C)c32)c1 [trametinib] | -3.4 | -2.64 | 3.34 | -1.12 | 3.71 | -0.0865 | -0.675 | -8 | -5 | -1.68
4 | CO[C@H]1C[C@@H]2CC[C@@H](C)[C@@](O)(O2)C(=O)C(=O)N2CCCC[C@H]2C(=O)O[C@H]([C@H](C)C[C@@H]2CC[C@@H](OC(=O)C(C)(CO)CO)[C@H](OC)C2)CC(=O)[C@H](C)/C=C(\C)[C@@H](O)[C@@H](OC)C(=O)[C@H](C)C[C@H](C)/C=C/C=C/C=C/1C [temsirolimus] | 1.08 | -9 | -11 | -1.78 | 0.71 | -3.63 | -19 | 8 | -6 | -4.55
